# Like-named read-outs stand apart in the source and are kept apart here.
# T1: CCL17 (Homo sapiens, UniProt Q92583)
# T1 construct: codes for the mature CCL17 or CCL22 with an N-terminal thioredoxin-hexahistidin (TRX- (His)6) tag; thioredoxin (TRX) (N, cleaved yes); (His)6 (N, cleaved yes); made in house; host or cells: E. coli BL21 (DE3)
# T1 sequence (Q92583 24-94): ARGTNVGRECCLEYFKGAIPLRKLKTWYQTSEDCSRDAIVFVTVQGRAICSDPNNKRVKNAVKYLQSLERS
# T2: CCL22 (Homo sapiens, UniProt O00626)
# T2 construct: codes for the mature CCL17 or CCL22 with an N-terminal thioredoxin-hexahistidin (TRX- (His)6) tag; thioredoxin (TRX) (N, cleaved yes); (His)6 (N, cleaved yes); made in house; host or cells: E. coli BL21 (DE3)
# T2 sequence (O00626 25-93): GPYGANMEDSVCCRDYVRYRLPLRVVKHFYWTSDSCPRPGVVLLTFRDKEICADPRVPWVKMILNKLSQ
# T3: EGFP-CCR4 on HEK cells (human) (UniProt P51679)
# T3 sequence: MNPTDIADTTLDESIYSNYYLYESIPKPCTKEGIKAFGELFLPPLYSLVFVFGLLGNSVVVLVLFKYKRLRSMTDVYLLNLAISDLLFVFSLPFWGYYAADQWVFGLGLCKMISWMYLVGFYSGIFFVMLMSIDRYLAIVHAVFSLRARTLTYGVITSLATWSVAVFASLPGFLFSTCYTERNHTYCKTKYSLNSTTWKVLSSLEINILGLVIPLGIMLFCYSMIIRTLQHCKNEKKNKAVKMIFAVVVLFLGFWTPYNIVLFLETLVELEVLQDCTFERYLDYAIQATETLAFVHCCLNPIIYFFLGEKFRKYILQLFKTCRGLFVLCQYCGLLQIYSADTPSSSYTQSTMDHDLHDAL
# B1: recombinant human CCL22 (ligand)
# chain: T2 sequence (O00626 25-93)
# What was measured:
# CCL17 = molecular target: T1, CCL17; assay: TRIC-r calcium assay, neutraligand protocol: compound preincubated with CCL17, EGFP-CCR4+Gqi5+ HEK cells; format: cell-based; details: for IC50: 5 nM CCL17 preincubated 1 h with compound, 21 °C, read-out: IC50 for CCL17 neutralization (calcium assay); for inhibition at 2 µg/mL: 2 μg/ml compound preincubated 1 h with 5 nM CCL17, read-out: inhibition of CCL17-induced calcium responses (primary screen)
# Protocol: (§1) EGFP-CCR4^+Gqi5^+HEKcells were loaded with fluorescent Ca^2+-indicator Indo-1 AM (5μM, Interchim) for 45 min at 37 °C. […] Cells (100,000 cells/well, 100μl) were seeded in black clear bottom 96-well plates (Greiner), and centrifuged at 250 × g for 5 min.
# (§2) Two plates (96-well plates, Greiner) were prepared for the screen: one containing test compounds alone in order to determine their direct agonistic activity, and another one containing test compounds mixed with CCL17 or CCL22 at room temperature for 1 h (neutraligand protocol). The chemokines and test compounds were prepared at a 3× concentration, while digitonin was prepared at a 4× concentration. The CCR4 antagonist, C-021 served as control in the experiment. In the antagonist protocol, compounds were added to the cell plate (one compound per well) and incubated with cells for 30 min at room temperature, while the agonist (CCL17 or CCL22) was added to the ligand plate only.
# (§3) Dye loaded cells were placed in the FlexStation 3 (Molecular Devices). […] For the primary screening, the ligands (50μl of chemokine mixed with DMSO or test compounds) were added to the cells at 40 s, followed by digitonin addition (50μl) at 100 s to the cells. Molecules were screened at a final concentration of 2μg/ml with 5 nM CCL17 or CCL22. […] The calcium response values (height of peak response over baseline) were determined. Hits were selected by comparing the response amplitude at the time of the chemokine addition ± test compound. The Z’ factor[29] was calculated according to the following equation: Z’ = 1-(3SD+ + 3SD−)/|Ave+ − Ave−|, where SD+ and Ave+ are respectively the standard deviation and the mean value of the positive controls (chemokine + DMSO), while SD− and Ave− are respectively the standard deviation and the mean value of the negative controls (HEPES-BSA (0.1%) mixed with DMSO, or cells mixed with C-021). Hit molecules were confirmed by performing concentration-response curves and their half maximal inhibitory concentration (IC50) values were calculated using the Kaleidagraph software.
# CCL22 = molecular target: T2, CCL22; assay: TRIC-r calcium assay, neutraligand protocol: compound preincubated with CCL22, EGFP-CCR4+Gqi5+ HEK cells; format: cell-based; details: for IC50: 5 nM CCL22 preincubated 1 h with compound, 21 °C, read-out: IC50 for CCL22 neutralization (calcium assay); for inhibition at 2 µg/mL: 2 μg/ml compound preincubated 1 h with 5 nM CCL22, read-out: inhibition of CCL22-induced calcium responses (primary screen)
# Protocol: as §1, §2, §3
# [1] = Solubility measurements (RP-HPLC); format: physicochemical; details: dissolved at 10 µM, room temperature; for solubility at 1 h: kinetic from dmso stock
# Protocol: Standard stock solutions of compounds (10mM) were prepared in DMSO, and the molecules were dissolved at a concentration of 10µM in each of the three buffers. The samples were shaken for 1h at room temperature, and centrifuged at 15,000×g . The compounds concentration in the supernatant solutions was determined using RP-HPLC (Gilson) technique. The measurements were done with a UV detector set at 230nm. The measurements were carried out at room temperature using a C18 column ([…], 50×4.6mm, Phenomenex). The aqueous mobile phase contained 0.05% trifluoroacetic acid (solvent A, Sigma-Aldrich). The organic phase was HPLC grade acetonitrile (Sigma-Aldrich CHROMASOLV) (solvent B). The mobile phase flow rate was 2ml/min, and the following program was applied for the elution: 0–0.1min, 5% B; 0.1–2.6min, 5–95% B; 2.6–3.1min, 95% B; 3.1–3.3min, 95–5% B; and 3.3–6min, 5% B. To establish external calibration curves, increasing concentrations of each compound were prepared from standard stock solutions.
# The chromatograms were recorded by injecting 20µl of each standard solution, and the calibration curves were plotted using peak areas. […]
# HUT78 T cells = assay: WST-1 metabolic activity assay; format: cell-based, human; details: 30 μM, 72 h
# Description: WST-1 metabolic activity assay
# The colorimetric WST-1 cell metabolic assay (Ozyme) was used to assess the cytotoxic effect of chemokine neutraligands. This is a cell viability test based on the enzymatic cleavage by the mitochondrial succinate-tetrazolium reductase of a tetrazolium salt, WST-1 (4-[3-(4-Iodophenyl)-2-(4-nitrophenyl)-2H-5-tetrazolio]-1,3 benzene disulfonate), into a water- […]
# soluble formazan dye which can be detected by absorbance at 420-480nm. HUT78 T cells (or HaCat cells) were seeded on 24-well plates (200,000 cells per well) and were incubated […]
# concentration ≤1% on cells). The background control was reserved as one well containing the culture medium only. The plates were incubated for 72h at 37°C. Three days later, the medium containing the neutraligands was removed, and WST-1 reagent (1:10 final dilution) (Ozyme) was added to each well for a 2h incubation at 37°C as the manufacturer’s recommendation. The plates were shaken and absorbance was measured at 450nm (reference wavelength 690nm) against the background control, using a multiwell plate reader (EnVision, Perkin Elmer). Assays were performed as three independent replicates. […]
# (Heidelberg, Germany) and was cultured in Dulbecco’s Modified Eagle Medium (DMEM) (Invitrogen) supplemented with 10% fetal bovine serum (FBS) (Gibco-BRL), 100U/ml penicillin (Invitrogen), 100µg/ml streptomycin (Invitrogen) and 2mM L-glutamine (Invitrogen) at 37°C and 5% CO 2. The cells received fresh medium every other day and were subcultured every 10 days. HaCat cells were seeded in a 24-well plate (ESSEN Bioscience) at a density of 200,000 cells per well, and were allowed to grow until confluence. A scratch wound along the cell monolayer was created using the Essen woundmakerTM. Cells were washed twice with PBS to remove detached cells, and were treated with serum-free culture medium in the absence or presence of 100ng/ml chemokine (CCL22 or CCL17) preincubated with DMSO or […]
# The molecules were also tested alone […]
# without the chemokine. […] One […]
# µg/ml of mitomycin C (Sigma-Aldrich) was added throughout the experiment in order to block cell proliferation. Once treated, the cells were immediately placed into the IncuCyteTM live-cell imaging, and the cell migration onto the wounded area was examined for 72h. Phase-contrast images acquired for each sample were captured every 2h (objective lens x10), and […]
# [2] = molecular target: T3, EGFP-CCR4 on HEK cells (human)
# [3] = HEPES buffer, aqueous buffer, read-out: solubility in HEPES buffer
# [4] = complete cell culture medium, plasma or biological fluid, read-out: solubility in the cell culture medium
# [5] = HEK293, compound 5 µM, read-out: Inhibition of CCL17 calcium responses (%)
# [6] = HEK293, compound 5 µM, read-out: Inhibition of CCL22 calcium responses (%)
molecule,measurement,setting,value
"CN1C(=O)N(C)C2=NNC=NC2(O)C1=O (centres unmarked) [GPN355, 4a-hydroxy-6,8-dimethyl-6,8-dihydropyrimido[5,4-e][1,2, 4]triazine-5,7(2H, 4aH)-dione]",IC50,CCL17,9600 ± 900 nM
same,inhibition at 2 µg/mL,CCL17; HEK293,42%
same,IC50,CCL22,200 nM
same,inhibition at 2 µg/mL,CCL22; HEK293,100%
same,solubility at 1 h,[1]; [3],> 10 µM
same,solubility at 1 h,[1]; [4],> 10 µM
same,inhibition of HUT78 cell metabolic activity,HUT78 T cells,23.1%
"CC(C)Cn1c(=O)n(C)c(=O)c2[nH]cnc21 [IBMX, 3-isobutyl-1-methyl xanthine, reference compound]",inhibition at 5 µM,CCL17; [5],0%
same,Inhibition of CCL17 calcium responses (%),CCL17; compound 5 µM,no effect
same,inhibition at 5 µM,CCL22; [6],0%
"COc1cc(C2=N/C(=C\c3ccccc3)C(=O)O2)cc(OC)c1OC [GPN251, (Z)-4-benzylidene-2-(3,4,5-trimethoxyphenyl)oxazol-5(4H)-one]",IC50,CCL17,900 ± 100 nM
same,inhibition at 2 µg/mL,CCL17; HEK293,53%
same,solubility at 1 h,[1]; [3],0.7 µM
same,solubility in the cell culture medium,[1]; 1 h,not detected as a free molecule
"Cn1c(=O)c2c(ncn2C)n(C)c1=O [Caffeine, reference compound]",inhibition at 5 µM,CCL17; [5],0%
same,Inhibition of CCL17 calcium responses (%),CCL17; compound 5 µM,no effect
same,inhibition at 5 µM,CCL22; [6],0%
O=C(O)c1ccccc1O [GPN0001207],Inhibition of CCL17 calcium responses (%),CCL17; compound 5 µM,0.0%
same,Inhibition of CCL22 calcium responses (%),"CCL22; compound 5 µM, 5 µM",0.0%
same,Inhibition of CCL22 calcium responses (%),"CCL22; compound 5 µM, listed as GPN001207, 5 µM",no inhibitory effect
"Cn1c(=O)c2[nH]cnc2n(C)c1=O [Theophylline, reference compound]",inhibition at 5 µM,"CCL17; HEK293, read-out: Inhibition of CCL17 calcium responses (%)",0%
same,Inhibition of CCL17 calcium responses (%),CCL17; compound 5 µM,no effect
same,inhibition at 5 µM,"CCL22; HEK293, read-out: Inhibition of CCL22 calcium responses (%)",0%
recombinant human CCL17 (from UniProt Q92583 24-94) (ligand),EC50 of calcium responses in EGFP-CCR4+ Gqi5+ HEK cells at 21 °C,[2],3.7 nM
"COc1ccc([C@@H](C)C(=O)c2ccc(O)cc2O)cc1 [GPN025, (R)-1-(2,4-dihydroxyphenyl)-2-(4-methoxyphenyl)propan-1-one]",IC50,CCL22,10600 ± 3700 nM
same,inhibition at 2 µg/mL,CCL22; HEK293,44%
same,solubility at 1 h,[1]; [3],> 10 µM
same,solubility at 1 h,[1]; [4],> 10 µM
same,inhibition of HUT78 cell metabolic activity,HUT78 T cells,81.3%
"CC(=O)Oc1ccccc1C(=O)O [aspirin, Acetylsalicylic acid, reference compound]",inhibition at 5 µM,CCL17; [5],0%
same,inhibition at 5 µM,CCL22; [6],0%
B1,EC50 of calcium responses in EGFP-CCR4+ Gqi5+ HEK cells at 21 °C,[2],2.9 nM
